Data from the NIST ThermoML archive (doi:10.1021/acs.jced.7b00372).
Values joined by “and” are separate entries in the source; they are usually repeats but may differ in a detail not shown here. Identical values can stand only once. ± gives the expanded uncertainty stated by the source.

Legend:
[1] = Liquid, Ebulliometric method (Recirculating still)
[2] = refractive index (Na D-line) (dimensionless); settings: 93 kPa, Liquid, Standard Abbe refractometry
[3] = refractive index (Na D-line) (dimensionless); xn = mol fraction of the nth substance listed; settings: 293.15 K, 93 kPa, Liquid, Standard Abbe refractometry

Cc1ccccc1C [1,2-dimethylbenzene]
vapor or sublimation pressure ([1]; 414.41 K): 93.13 ± 0.96 kPa | refractive index ([2]; 293.15 K): 1.5048 ± 0.0004 | refractive index ([2]; 298.15 K): 1.5022 ± 0.0004

Cc1ccccc1C [1,2-dimethylbenzene] + COC(=O)OC
refractive index ([3]; x1 = 0.045): 1.377 ± 0.0005 | refractive index ([3]; x1 = 0.1564): 1.3961 ± 0.0005 | refractive index ([3]; x1 = 0.1622): 1.3969 ± 0.0005 | refractive index ([3]; x1 = 0.2752): 1.4149 ± 0.0005 | refractive index ([3]; x1 = 0.36): 1.4272 ± 0.0005 | refractive index ([3]; x1 = 0.4516): 1.4397 ± 0.0005 | refractive index ([3]; x1 = 0.5655): 1.4556 ± 0.0005 | refractive index ([3]; x1 = 0.603): 1.4601 ± 0.0005 | refractive index ([3]; x1 = 0.7134): 1.4734 ± 0.0005 | refractive index ([3]; x1 = 0.7602): 1.4795 ± 0.0005 | refractive index ([3]; x1 = 0.8813): 1.493 ± 0.0005 | refractive index ([3]; x1 = 0.9276): 1.4973 ± 0.0005 | refractive index ([3]; x1 = 1): 1.5048 ± 0.0004

Cc1cccc(C)c1 [1,3-dimethylbenzene]
vapor or sublimation pressure ([1]; 409.13 K): 93.13 ± 0.96 kPa | refractive index ([2]; 293.15 K): 1.497 ± 0.0004 | refractive index ([2]; 298.15 K): 1.4943 ± 0.0004

Cc1cccc(C)c1 [1,3-dimethylbenzene] + COC(=O)OC
refractive index ([3]; x1 = 0.0467): 1.3769 ± 0.0005 | refractive index ([3]; x1 = 0.0871): 1.3836 ± 0.0005 | refractive index ([3]; x1 = 0.1737): 1.3973 ± 0.0005 | refractive index ([3]; x1 = 0.2042): 1.4021 ± 0.0005 | refractive index ([3]; x1 = 0.2593): 1.4101 ± 0.0005 | refractive index ([3]; x1 = 0.3033): 1.4167 ± 0.0005 | refractive index ([3]; x1 = 0.3719): 1.4262 ± 0.0005 | refractive index ([3]; x1 = 0.4455): 1.4359 ± 0.0005 | refractive index ([3]; x1 = 0.4709): 1.439 ± 0.0005 | refractive index ([3]; x1 = 0.5421): 1.4481 ± 0.0005 | refractive index ([3]; x1 = 0.6549): 1.4612 ± 0.0005 | refractive index ([3]; x1 = 0.7672): 1.4738 ± 0.0005 | refractive index ([3]; x1 = 0.8662): 1.4839 ± 0.0005 | refractive index ([3]; x1 = 0.94): 1.4913 ± 0.0005 | refractive index ([3]; x1 = 1): 1.497 ± 0.0004

Cc1ccc(C)cc1 [1,4-dimethylbenzene]
vapor or sublimation pressure ([1]; 408.37 K): 93.13 ± 0.96 kPa | refractive index ([2]; 293.15 K): 1.4956 ± 0.0004 | refractive index ([2]; 298.15 K): 1.4929 ± 0.0004

Cc1ccc(C)cc1 [1,4-dimethylbenzene] + COC(=O)OC
refractive index ([3]; x1 = 0.0368): 1.3752 ± 0.0005 | refractive index ([3]; x1 = 0.0866): 1.3835 ± 0.0005 | refractive index ([3]; x1 = 0.157): 1.3946 ± 0.0005 | refractive index ([3]; x1 = 0.2639): 1.4106 ± 0.0005 | refractive index ([3]; x1 = 0.3598): 1.4241 ± 0.0005 | refractive index ([3]; x1 = 0.4244): 1.4326 ± 0.0005 | refractive index ([3]; x1 = 0.5293): 1.4457 ± 0.0005 | refractive index ([3]; x1 = 0.6397): 1.4586 ± 0.0005 | refractive index ([3]; x1 = 0.7655): 1.4724 ± 0.0005 | refractive index ([3]; x1 = 0.8832): 1.4848 ± 0.0005 | refractive index ([3]; x1 = 0.938): 1.4898 ± 0.0005 | refractive index ([3]; x1 = 1): 1.4956 ± 0.0004

COC(=O)OC [dimethyl carbonate]
vapor or sublimation pressure ([1]; 360.73 K): 93.13 ± 0.96 kPa | refractive index ([2]; 293.15 K): 1.3687 ± 0.0004 and 1.3688 ± 0.0004 | refractive index ([2]; 298.15 K): 1.3664 ± 0.0004

COC(=O)OC [dimethyl carbonate] + CCc1ccccc1
refractive index ([3]; x2 = 0): 1.3688 ± 0.0004

COC(=O)OC [dimethyl carbonate] + Cc1ccc(C)cc1
refractive index ([3]; x2 = 0): 1.3687 ± 0.0004

COC(=O)OC [dimethyl carbonate] + Cc1cccc(C)c1
refractive index ([3]; x2 = 0): 1.3688 ± 0.0004

COC(=O)OC [dimethyl carbonate] + Cc1ccccc1C
refractive index ([3]; x2 = 0): 1.3688 ± 0.0004

CCc1ccccc1 [ethylbenzene]
vapor or sublimation pressure ([1]; 406.23 K): 93.13 ± 0.96 kPa | refractive index ([2]; 293.15 K): 1.4956 ± 0.0004 | refractive index ([2]; 298.15 K): 1.493 ± 0.0004

CCc1ccccc1 [ethylbenzene] + COC(=O)OC
refractive index ([3]; x1 = 0.0462): 1.3767 ± 0.0005 | refractive index ([3]; x1 = 0.089): 1.3836 ± 0.0005 | refractive index ([3]; x1 = 0.1753): 1.397 ± 0.0005 | refractive index ([3]; x1 = 0.2701): 1.4109 ± 0.0005 | refractive index ([3]; x1 = 0.3564): 1.4232 ± 0.0005 | refractive index ([3]; x1 = 0.4359): 1.4335 ± 0.0006 | refractive index ([3]; x1 = 0.4448): 1.4352 ± 0.0005 | refractive index ([3]; x1 = 0.468): 1.4382 ± 0.0005 | refractive index ([3]; x1 = 0.5157): 1.4441 ± 0.0005 | refractive index ([3]; x1 = 0.5825): 1.4527 ± 0.0005 | refractive index ([3]; x1 = 0.6639): 1.4617 ± 0.0005 | refractive index ([3]; x1 = 0.7377): 1.4702 ± 0.0005 | refractive index ([3]; x1 = 0.852): 1.4815 ± 0.0005 | refractive index ([3]; x1 = 0.8827): 1.4847 ± 0.0005 | refractive index ([3]; x1 = 0.9124): 1.4873 ± 0.0005 | refractive index ([3]; x1 = 0.9395): 1.49 ± 0.0005 | refractive index ([3]; x1 = 1): 1.4956 ± 0.0004
